From ChEMBL document CHEMBL3243954 (J Med Chem, 1979)

What was measured:
[1] = tested on: Brain; experiment: Drug uptake albino mouse brain at 5 mg equivalent of oxazepam/kg, iv after 30 mins measured per gm of tissue by thin-layer chromatography; assay type: ADME, organism-based; conditions: in vivo, 0.5 h
[2] = tested on: Brain; experiment: Drug uptake albino mouse brain at 5 mg equivalent of oxazepam/kg, iv after 60 mins measured per gm of tissue by thin-layer chromatography; assay type: ADME, organism-based; conditions: in vivo, 1 h
[3] = tested on: Brain; experiment: Drug uptake albino mouse brain at 5 mg equivalent of oxazepam/kg, iv after 1 min measured per gm of tissue by thin-layer chromatography; assay type: ADME, organism-based; conditions: in vivo
[4] = Retardation factor, Rm of the compound by thin-layer chromatography; assay type: physicochemical
[5] = tested on: Brain; experiment: Drug uptake albino mouse brain at 5 mg equivalent of oxazepam/kg, iv after 6 mins measured per gm of tissue by thin-layer chromatography; assay type: ADME, organism-based; conditions: in vivo, 0.1 h
[6] = tested on: Brain; experiment: Drug uptake albino mouse brain at 5 mg equivalent of oxazepam/kg, iv after 120 mins measured per gm of tissue by thin-layer chromatography; assay type: ADME, organism-based; conditions: in vivo, 2 h
[7] = tested on: Brain; experiment: Drug uptake albino mouse brain at 5 mg equivalent of oxazepam/kg, iv after 2 mins measured per gm of tissue by thin-layer chromatography; assay type: ADME, organism-based; conditions: in vivo
[8] = tested on: Brain; experiment: Drug uptake albino mouse brain at 5 mg equivalent of oxazepam/kg, iv after 20 mins measured per gm of tissue by thin-layer chromatography; assay type: ADME, organism-based; conditions: in vivo
[9] = tested on: Brain; experiment: Drug uptake albino mouse brain at 5 mg equivalent of oxazepam/kg, iv after 40 mins measured per gm of tissue by thin-layer chromatography; assay type: ADME, organism-based; conditions: in vivo
[10] = tested on: Brain; experiment: Drug uptake albino mouse brain at 5 mg equivalent of oxazepam/kg, iv after 10 mins measured per gm of tissue by thin-layer chromatography; assay type: ADME, organism-based; conditions: in vivo
[11] = tested on: Brain; experiment: Drug uptake albino mouse brain at 5 mg equivalent of oxazepam/kg, iv after 5 mins measured per gm of tissue by thin-layer chromatography; assay type: ADME, organism-based; conditions: in vivo
[12] = tested on: Brain; experiment: Drug uptake albino mouse brain at 5 mg equivalent of oxazepam/kg, iv after 240 mins measured per gm of tissue by thin-layer chromatography; assay type: ADME, organism-based; conditions: in vivo, 4 h
[13] = tested on: Brain; experiment: Drug uptake albino mouse brain at 15 mg equivalent of oxazepam/kg, iv after 40 mins measured per gm of tissue by thin-layer chromatography; assay type: ADME, organism-based; conditions: in vivo
[14] = tested on: Brain; experiment: Drug uptake albino mouse brain at 15 mg equivalent of oxazepam/kg, iv after 1 mins measured per gm of tissue by thin-layer chromatography; assay type: ADME, organism-based; conditions: in vivo
[15] = tested on: Brain; experiment: Drug uptake albino mouse brain at 15 mg equivalent of oxazepam/kg, iv after 90 mins measured per gm of tissue by thin-layer chromatography; assay type: ADME, organism-based; conditions: in vivo, 1.5 h
[16] = tested on: Brain; experiment: Drug uptake albino mouse brain at 15 mg equivalent of oxazepam/kg, iv after 180 mins measured per gm of tissue by thin-layer chromatography; assay type: ADME, organism-based; conditions: in vivo, 3 h
[17] = tested on: Brain; experiment: Drug uptake albino mouse brain at 15 mg equivalent of oxazepam/kg, iv after 12 mins measured per gm of tissue by thin-layer chromatography; assay type: ADME, organism-based; conditions: in vivo, 0.2 h
[18] = tested on: Brain; experiment: Drug uptake albino mouse brain at 15 mg equivalent of oxazepam/kg, iv after 3 mins measured per gm of tissue by thin-layer chromatography; assay type: ADME, organism-based; conditions: in vivo, 0.05 h
[19] = tested on: Brain; experiment: Drug uptake albino mouse brain at 15 mg equivalent of oxazepam/kg, iv after 20 mins measured per gm of tissue by thin-layer chromatography; assay type: ADME, organism-based; conditions: in vivo

**Q.** What does the source list for `COC(=O)CCC(=O)OC1N=C(c2ccccc2)c2cc(Cl)ccc2N[14C]1=O` (configuration not stated)?
**A.** Drug uptake [1]: 10.8 nmol; Drug uptake [2]: 9.8 nmol; Drug uptake [3]: 0.8 nmol; Rm [4]: -0.03; Drug uptake [5]: 3.8 nmol

**Q.** Which results are given for `CC(C)C(=O)OC1N=C(c2ccccc2)c2cc(Cl)ccc2N[14C]1=O` (configuration not stated)?
**A.** Drug uptake [6]: 5.9 nmol; Drug uptake [2]: 10.8 nmol; Rm [4]: 0.12; Drug uptake [7]: 3.1 nmol; Drug uptake [8]: 9.3 nmol; Drug uptake [9]: 11.6 nmol; Drug uptake [10]: 8.9 nmol; Drug uptake [11]: 5.7 nmol; Drug uptake [12]: 3.8 nmol

**Q.** Which Rm [4] does the source give for `CCCC(=O)OC1N=C(c2ccccc2)c2cc(Cl)ccc2N[14C]1=O` (configuration not stated) here?
**A.** 0.17

**Q.** What about the Drug uptake [13] of the same compound?
**A.** 32 nmol

**Q.** And the Drug uptake [14]?
**A.** 16.6 nmol

**Q.** And the Drug uptake [15]?
**A.** 38.2 nmol

**Q.** What about the Drug uptake [16] of the same compound?
**A.** 22.6 nmol

**Q.** What about the Drug uptake [17] of the same compound?
**A.** 19 nmol

**Q.** And the Drug uptake [18]?
**A.** 17.3 nmol

**Q.** And the Drug uptake [19]?
**A.** 25.9 nmol
